Read-outs that look alike come from different tables or passages of the source. Values belong to the compound of their own block, whether it stands above or below them.
Legend:
anaesthetised dog = assay: Haemodynamic study in the anaesthetised dog (vascular resistances), i.v.; format: in vivo
Procedure: A complete haemodynamic study was carried out on mongrel dogs weighing from 25 to 30 kg, which were anaesthetised with sodium pentobarbital 30 mg/kg i.v., intubated and ventilated and subjected to a thoracotomy at the 5th left intercostal space. The measurement of the […] is carried out using electromagnetic rings positioned at the level of the ascending aorta and the circumflex branch of the left coronary artery, respectively, and connected to GOULD SP 2202 electromagnetic flow meters. The aortic pressure is measured by a MILLAR probe introduced via the femoral artery.
The total peripheral vascular resistance values (TPR) and the mean coronary vascular resistance values (CVRM) are calculated by the ratio between the mean aortic pressure and the mean cardiac output and the mean coronary output, respectively. The products tested were injected via the femoral vein in a form dissolved in water or a suitable solvent.
The evolution of the vascular resistances, expressed as percentage variation with respect to the control values, is presented as a function of time in the following Table.

aorta of the rat = assay: Relaxation of rat aortic rings contracted by potassium depolarisation (KCl); format: cell-based; conditions: Rattus norvegicus, rat aorta rings without endothelium
Procedure: Male Wistar rats (325-375 g) are anaesthetised i.p. using sodium pentobarbital (30 mg/kg). The thoracic aorta and the mesenteric portal vein are removed. The aorta is dissected into rings 3 mm long and the endothelium is removed mechanically.
The organs are placed in a 20 ml thermostatically controlled vessel containing a physiological solution composed of (mM): NaCl 112; KCl 5; KH2 PO4 1; MgSO4 1.2; CaCl2 2.5; NaHCO3 25; glucose 11.5; EDTA 0.1; pH: 7.4; 37° C.; 95% O2 +5% CO2.
The initial force applied is 2 g in the case of the aorta and 0.5 g in the case of the portal vein. The variations in force are measured by a STATHAM sensor connected to a transducer amplifier (GOULD) and are monitored continuously on a GOULD 2400 graphic recorder.
The experimental protocols are as follows: After a stabilisation period of 90 minutes, the aortic rings are subjected to various tests:
potassium depolarisation:
The preparations are exposed to a 30 mM or 80 mM KCl (and 87 and 37 mM NaCl, respectively) hyperpotassium medium; after 30 minutes' stabilisation of contraction, cumulative concentrations of the product to be tested are added every 15 minutes. The relaxation values obtained allow the IC50 s to be calculated.
The products are used in a form dissolved in water or a suitable solvent.
The concentrations expressed refer to the final concentrations in terms of base in the isolated organ baths.

[1] = tested on: spontaneously hypertensive rat (SHR); assay: Arterial pressure in the conscious spontaneously hypertensive rat (SHR), oral; format: in vivo
Procedure: The study is carried out on SHR male rats (Charles River) weighing from 260 g to 330 g and aged from 18 to 20 weeks. A polyethylene catheter is positioned at the level of the abdominal aorta and tunnelised at the level of the neck under anaesthesia (ketamine hydrochloride 150 mg/kg intraperitoneally). The animals, placed in movement-restraining cages, are tested in the conscious state at least 48 hours after intervention. The arterial pressure, measured by a STATHAM P23 pressure sensor connected to the abdominal catheter, is registered on a GOULD 2400 recorder. […] The doses administered are expressed in mg/kg of base.
The results obtained with a certain number of representative products of the invention and a reference product, CROMAKALIM, are grouped in the following Table. The variations in systolic and diastolic arterial pressure (PAS and PAD) presented at the most significant times after treatment are expressed as percentage variation with respect to the control values.

[2] = tested on: conscious renally hypertensive dog; assay: Arterial pressure in the conscious renally hypertensive dog; format: in vivo; conditions: gastric intubation, 0.1 mg/kg
Procedure: Mongrel dogs weighing from 20 to 25 kg are used. A silastic catheter positioned under anaesthesia (sodium pentobarbital 30 mg/kg i.v.) at the level of the abdominal aorta and left over a prolonged period permits the later measurement of the arterial pressure in the conscious animals. Arterial hypertension is induced by a second intervention under anaesthesia consisting in a constriction of the left renal artery using a clip, which reduces its rate of flow by approximately 70%, the left kidney is enveloped in a latex capsule and the contralateral kidney is left in place.
The systolic and diastolic arterial pressures (PAS and PAD) are measured using a STATHAM P23 pressure sensor connected to the silastic catheter and linked to a GOULD pressure amplifier. The products are tested on the animals, which have become hypertensive, in the conscious state, at least one week after the second intervention. The arterial pressure is monitored continuously on an ES1000 GOULD recorder until 7 hours have elapsed after the treatment and then until 24 hours have elapsed.
The products to be tested are administered via the digestive system, after gastric intubation, in a form dissolved in water or a suitable solvent. The doses administered are expressed in mg of base with respect to body weight.
The representative products of the invention were compared with the reference product (CROMAKALIM). The variations in the systolic and diastolic arterial pressures (PAS and PAD), presented at the most significant times after treatment, are expressed as percentage variation with respect to the control values.

guinea pig = assay: Bronchospasm produced by a histamine aerosol at 4%, compound i.v.; format: in vivo; conditions: 0.35 mg/kg i.v.
Procedure: The bronchodilating activity has been studied in the guinea pig by the method of H. KONZETT and R. ROSSLER, Arch. Exp. Path. U. Pharm. 195, 71 (1940).
For example, the bronchospasm produced in the guinea pig by a histamine aerosol et 4% is inhibited of 96% by the compound of Example 1 B form, at the dose of 0.30 mg/kg i.v., and of 100% by the compound of Example 24 B form, at the dose of 0.35 mg/kg i.v.

IC50 (aorta of the rat; 30 mM KCl, read-out: IC50 (M) KCl 30 mM): 2.8e-07 M
IC50 (aorta of the rat; 80 mM KCl, read-out: IC50 (M) KCl 80 mM): > 0.0001 M
SMILES: COC[C@@H]1CCC(=O)N1C1c2cc(C#N)ccc2OC(C)(C)C1O (single isomer, unassigned) [Example 2 form A, 3S,4R- or 3R,4S-trans-2,2-dimethyl-3-hydroxy-4-(2-oxo-5S-methoxymethyl-1-pyrrolidinyl)-6-cyanochroman]
Variation (%) of CVRM after treatment (anaesthetised dog; 30 μg/kg, 1 min): -28.9%
Variation (%) of TPR after treatment (anaesthetised dog; 30 μg/kg, 1 min): -9.8%
Variation (%) of CVRM after treatment (anaesthetised dog; 30 μg/kg, 10 min): -20.2%
Variation (%) of TPR after treatment (anaesthetised dog; 30 μg/kg, 10 min): -11.8%
Variation (%) of CVRM after treatment (anaesthetised dog; 30 μg/kg, 30 min): -22.1%
Variation (%) of TPR after treatment (anaesthetised dog; 30 μg/kg, 30 min): -11.8%
Variation (%) of CVRM after treatment (anaesthetised dog; 100 μg/kg, 1 min): -54.7%
Variation (%) of TPR after treatment (anaesthetised dog; 100 μg/kg, 1 min): -15.8%
Variation (%) of CVRM after treatment (anaesthetised dog; 100 μg/kg, 10 min): -56.1%
Variation (%) of TPR after treatment (anaesthetised dog; 100 μg/kg, 10 min): -14.7%
Variation (%) of CVRM after treatment (anaesthetised dog; 100 μg/kg, 30 min): -50.5%
Variation (%) of TPR after treatment (anaesthetised dog; 100 μg/kg, 30 min): -12.6%
Variation (%) of PAD after treatment ([1]; 1.0 mg/kg, 1 H): -21 ± 4%
Variation (%) of PAS after treatment ([1]; 1.0 mg/kg, 1 H): -16 ± 3%
Variation (%) of PAD after treatment ([1]; 1.0 mg/kg, 3 H): -19 ± 3%
Variation (%) of PAS after treatment ([1]; 1.0 mg/kg, 3 H): -12 ± 3%
Variation (%) of PAD after treatment ([1]; 1.0 mg/kg, 6 H): -14 ± 2%
Variation (%) of PAS after treatment ([1]; 1.0 mg/kg, 6 H): -9 ± 2%
Variation (%) of PAD after treatment ([1]; 1.0 mg/kg, 30 min): -17 ± 3%
Variation (%) of PAS after treatment ([1]; 1.0 mg/kg, 30 min): -11 ± 2%
Variation (%) of PAD after treatment ([1]; 3.0 mg/kg, 1 H): -36 ± 3%
Variation (%) of PAS after treatment ([1]; 3.0 mg/kg, 1 H): -26 ± 2%
Variation (%) of PAD after treatment ([1]; 3.0 mg/kg, 3 H): -31 ± 3%
Variation (%) of PAS after treatment ([1]; 3.0 mg/kg, 3 H): -25 ± 3%
Variation (%) of PAD after treatment ([1]; 3.0 mg/kg, 6 H): -27 ± 3%
Variation (%) of PAS after treatment ([1]; 3.0 mg/kg, 6 H): -21 ± 3%
Variation (%) of PAD after treatment ([1]; 3.0 mg/kg, 30 min): -35 ± 3%
Variation (%) of PAS after treatment ([1]; 3.0 mg/kg, 30 min): -24 ± 1%
Variation (%) of PAD after treatment ([2]; 1 H): -20%
Variation (%) of PAS after treatment ([2]; 1 H): -12%
Variation (%) of PAD after treatment ([2]; 3 H): -32%
Variation (%) of PAS after treatment ([2]; 3 H): -28%
Variation (%) of PAD after treatment ([2]; 7 H): -44%
Variation (%) of PAS after treatment ([2]; 7 H): -41%
Variation (%) of PAD after treatment ([2]; 24 H): 0%
Variation (%) of PAS after treatment ([2]; 24 H): -2%
Variation (%) of PAD after treatment ([2]; 30 min): -14%
Variation (%) of PAS after treatment ([2]; 30 min): -2%

SMILES: CN(C)C[C@@H]1CCC(=O)N1C1c2cc(C#N)ccc2OC(C)(C)C1O (single isomer, unassigned) [Example 3 form A, 3R,4S- or 3S,4R-trans-2,2-dimethyl-3-hydroxy-4-(2-oxo-5S-dimethylaminomethyl-1-pyrrolidinyl)-6-cyanochroman]
Variation (%) of CVRM after treatment (anaesthetised dog; 3000 μg/kg, 1 min): +2.5%
Variation (%) of TPR after treatment (anaesthetised dog; 3000 μg/kg, 1 min): +1.7%
Variation (%) of CVRM after treatment (anaesthetised dog; 3000 μg/kg, 10 min): -38.5%
Variation (%) of TPR after treatment (anaesthetised dog; 3000 μg/kg, 10 min): -6.8%
Variation (%) of CVRM after treatment (anaesthetised dog; 3000 μg/kg, 30 min): -49.0%
Variation (%) of TPR after treatment (anaesthetised dog; 3000 μg/kg, 30 min): -8.5%

SMILES: COC(=O)c1ccc2c(c1)C(N1C(=O)CCC1CO)C(O)C(C)(C)O2 (single isomer, unassigned) [Example 24 B form]
Inhibition of the bronchospasm produced by a histamine aerosol at 4% (guinea pig): 100%

From patent US4999372A, “New aminochromanol compounds” (ADIR et Compagnie, priority 1988, dated 1991)
